Results reported in PubChem BioAssay AID248 (DTP/NCI, 2004).
“And” between values parts separate entries of the source, which are not always exact repeats. Equal entries are not always repeated. Inconclusive results and toxic doses are left out. Rule as the data show it: active = T/C of 150% or more; inactive = T/C below 125%.

Test system: L1210 leukemia ip in BDF1 mice, survival T/C
Experiment: NCI In Vivo Anticancer Drug Screen. Data for tumor model L1210 Leukemia (intraperitoneal) in B6D2F1 (BDF1) mice
Details: endpoint: mean survival time, higher = longer survival
Outline: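 Antitumor effect is assessed in tumor-bearing animals. Survival in the compound arm is compared with a vehicle-dosed control arm and expressed as their quotient.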

[1] = dose: 50.0 mg/kg/injection, schedule: Q01DX001 (ip), vehicle: saline
[2] = dose: 100.0 mg/kg/injection, schedule: Q01DX001 (ip), vehicle: saline
[3] = dose: 200.0 mg/kg/injection, schedule: Q01DX001 (ip), vehicle: saline
[4] = dose: 400.0 mg/kg/injection, schedule: Q01DX001 (ip), vehicle: saline
[5] = dose: 100.0 mg/kg/injection, schedule: Q04DX003 (ip), vehicle: saline with Tween-80
[6] = dose: 200.0 mg/kg/injection, schedule: Q04DX003 (ip), vehicle: saline with Tween-80
[7] = dose: 400.0 mg/kg/injection, schedule: Q04DX003 (ip), vehicle: saline with Tween-80
[8] = dose: 100.0 mg/kg/injection, schedule: Q04DX003 (ip), vehicle: saline
[9] = dose: 200.0 mg/kg/injection, schedule: Q04DX003 (ip), vehicle: saline
[10] = dose: 50.0 mg/kg/injection, schedule: Q01DX001 (ip), vehicle: carboxymethylcellulose (CMC)
[11] = dose: 100.0 mg/kg/injection, schedule: Q01DX001 (ip), vehicle: carboxymethylcellulose (CMC)
[12] = dose: 200.0 mg/kg/injection, schedule: Q01DX001 (ip), vehicle: carboxymethylcellulose (CMC)
[13] = dose: 400.0 mg/kg/injection, schedule: Q01DX001 (ip), vehicle: carboxymethylcellulose (CMC)
[14] = dose: 100.0 mg/kg/injection, schedule: Q04DX003 (ip), vehicle: Klucel (hydroxypropylcellulose) (HPC)
[15] = dose: 200.0 mg/kg/injection, schedule: Q04DX003 (ip), vehicle: Klucel (hydroxypropylcellulose) (HPC)
[16] = dose: 400.0 mg/kg/injection, schedule: Q04DX003 (ip), vehicle: Klucel (hydroxypropylcellulose) (HPC)
[17] = dose: 100.0 mg/kg/injection, schedule: Q01DX001 (ip), vehicle: Klucel (hydroxypropylcellulose) (HPC)
[18] = dose: 200.0 mg/kg/injection, schedule: Q01DX001 (ip), vehicle: Klucel (hydroxypropylcellulose) (HPC)

Measured: T/C

CC(=O)OCC1OC(n2nnc(CBr)c2CBr)C(OC(C)=O)C(OC(C)=O)C1OC(C)=O (configuration not stated)
inactive: dose: 12.5 mg/kg/injection, schedule: Q01DX005 (ip), vehicle: other 94 % of control | dose: 25.0 mg/kg/injection, schedule: Q01DX005 (ip), vehicle: other 102 % of control | dose: 50.0 mg/kg/injection, schedule: Q01DX005 (ip), vehicle: other 97 % of control

COc1ccc2ccccc2c1/C=N/N1CCCCC1
inactive: dose: 100.0 mg/kg/injection, schedule: Q01DX009 (ip), vehicle: saline with Tween-80 100 % of control | dose: 200.0 mg/kg/injection, schedule: Q01DX009 (ip), vehicle: saline with Tween-80 93 % of control | dose: 400.0 mg/kg/injection, schedule: Q01DX009 (ip), vehicle: saline with Tween-80 100 % of control

Cc1ccc(C(=O)C2CC=CCC2C(=O)c2ccc(C)cc2)cc1 (configuration not stated)
inactive: dose: 50.0 mg/kg/injection, schedule: Q01DX009 (ip), vehicle: Klucel (hydroxypropylcellulose) (HPC) 97 % of control | dose: 100.0 mg/kg/injection, schedule: Q01DX009 (ip), vehicle: Klucel (hydroxypropylcellulose) (HPC) 91 % of control | dose: 200.0 mg/kg/injection, schedule: Q01DX009 (ip), vehicle: Klucel (hydroxypropylcellulose) (HPC) 92 % of control | dose: 400.0 mg/kg/injection, schedule: Q01DX009 (ip), vehicle: Klucel (hydroxypropylcellulose) (HPC) 90 % of control

C[n+]1cccc2cccc(N)c21
inactive: dose: 10.0 mg/kg/injection, schedule: Q01DX001 (ip), vehicle: other 105 % of control | dose: 20.0 mg/kg/injection, schedule: Q01DX001 (ip), vehicle: other 115 % of control | dose: 40.0 mg/kg/injection, schedule: Q01DX001 (ip), vehicle: other 105 % of control

CC(C)NCCNc1ccnc2cc(Cl)ccc12
inactive: dose: 10.0 mg/kg/injection, schedule: Q01DX001 (ip), vehicle: saline 94 % of control | dose: 20.0 mg/kg/injection, schedule: Q01DX001 (ip), vehicle: saline 98 % of control | dose: 40.0 mg/kg/injection, schedule: Q01DX001 (ip), vehicle: saline 96 % of control

CCOC(OCC)c1ccccc1
inactive: [1] 113 % of control | [2] 115 % of control | [3] 109 % of control | [4] 113 % of control

CCCCCC/C=C/C=C/C(C)C
inactive: dose: 75.0 mg/kg/injection, schedule: Q01DX001 (ip), vehicle: saline 95 % of control | dose: 75.0 mg/kg/injection, schedule: Q04DX003 (ip), vehicle: saline 104 % of control | dose: 150.0 mg/kg/injection, schedule: Q01DX001 (ip), vehicle: saline 101 % of control | dose: 150.0 mg/kg/injection, schedule: Q04DX003 (ip), vehicle: saline 102 % of control | dose: 300.0 mg/kg/injection, schedule: Q01DX001 (ip), vehicle: saline 105 % of control | dose: 300.0 mg/kg/injection, schedule: Q04DX003 (ip), vehicle: saline 100 % of control

CCC1CC(C#N)C(=O)NC1=O (configuration not stated)
inactive: dose: 6.25 mg/kg/injection, schedule: Q01DX009 (ip), vehicle: saline 93 % of control | dose: 12.5 mg/kg/injection, schedule: Q01DX001 (ip), vehicle: saline 108 % of control | dose: 12.5 mg/kg/injection, schedule: Q01DX009 (ip), vehicle: saline 91 % of control | dose: 12.5 mg/kg/injection, schedule: Q04DX003 (ip), vehicle: saline 100 % of control | dose: 25.0 mg/kg/injection, schedule: Q01DX001 (ip), vehicle: saline 100 % of control | dose: 25.0 mg/kg/injection, schedule: Q01DX009 (ip), vehicle: saline 93 % of control | dose: 25.0 mg/kg/injection, schedule: Q04DX003 (ip), vehicle: saline 92 % of control | [1] 110 % of control

CCCC(CCC)NCCOC(=O)c1ccc(N)cc1
inactive: dose: 75.0 mg/kg/injection, schedule: Q01DX001 (ip), vehicle: other 101 % of control

COc1ccc(/C=C(/C(=O)O)c2ccc(OC)cc2)cc1
inactive: dose: 100.0 mg/kg/injection, schedule: Q04DX003 (ip), vehicle: other 98 % of control | dose: 200.0 mg/kg/injection, schedule: Q04DX003 (ip), vehicle: other 95 % of control | dose: 400.0 mg/kg/injection, schedule: Q04DX003 (ip), vehicle: other 95 % of control

CC(C)N(C)c1ccc(N=Nc2cc(Cl)ccc2Cl)cc1
inactive: [5] 98 % of control | [6] 102 % of control | [7] 104 % of control

O=[N+]([O-])c1cccc(P(=O)(c2cccc([N+](=O)[O-])c2)c2cccc([N+](=O)[O-])c2)c1
inactive: dose: 100.0 mg/kg/injection, schedule: Q01DX009 (ip), vehicle: saline 101 % of control | [8] 93 % of control | dose: 200.0 mg/kg/injection, schedule: Q01DX009 (ip), vehicle: saline 101 % of control | [9] 104 % of control | dose: 400.0 mg/kg/injection, schedule: Q01DX009 (ip), vehicle: saline 95 % of control | dose: 400.0 mg/kg/injection, schedule: Q04DX003 (ip), vehicle: saline 106 % of control

CCN(CC)c1nc(SCc2ccccc2Cl)ncc1C
inactive: dose: 100.0 mg/kg/injection, schedule: Q01DX Z (ip), vehicle: methylcellulose (MC) 93 % of control | dose: 200.0 mg/kg/injection, schedule: Q01DX Z (ip), vehicle: methylcellulose (MC) 98 % of control

C[n+]1cc(I)cc2ccccc21
inactive: [10] 97 % of control | [11] 103 % of control | [12] 103 % of control | [13] 101 % of control

C=CCS(=O)(=O)c1ccc(C)cc1
inactive: [14] 102 % of control | [15] 100 % of control | [16] 100 % of control

CCCCC(=O)N/N=C/c1cc(I)cc(I)c1O
inactive: [2] 87 % of control | [3] 89 % of control | [4] 87 % of control

Cc1ccc(S(=O)(=O)N=Nc2c(O)[nH]c3cc(O)c(C(=O)O)cc23)cc1
inactive: dose: 50.0 mg/kg/injection, schedule: Q04DX003 (ip), vehicle: Klucel (hydroxypropylcellulose) (HPC) 103 % of control | [14] 92 % of control | [5] 100 % of control | [15] 92 % of control and 98 % of control | [6] 110 % of control | [16] 95 % of control | [7] 110 % of control

Cc1ccc(C2C(C(=O)c3ccccc3)N2Cc2ccccc2)cc1 (configuration not stated)
inactive: [17] 98 % of control | [18] 95 % of control

Cc1ccc(SS(=O)(=O)c2ccc(C)cc2)cc1
inactive: [17] 86 % of control | dose: 100.0 mg/kg/injection, schedule: Q01DX009 (ip), vehicle: saline sonified 116 % of control | [14] 114 % of control | [18] 86 % of control | dose: 200.0 mg/kg/injection, schedule: Q01DX009 (ip), vehicle: saline sonified 102 % of control | [15] 101 % of control | dose: 400.0 mg/kg/injection, schedule: Q01DX009 (ip), vehicle: saline sonified 107 % of control | [16] 106 % of control

CN(C)CC(=O)N/N=C\c1ccc([N+](=O)[O-])s1
inactive: [8] 91 % of control | [9] 93 % of control

CC(=O)OC1CC2C=CC1CC2 (configuration not stated)
inactive: [10] 111 % of control | [11] 101 % of control | [12] 95 % of control | [13] 101 % of control
